How the values were obtained:
[1] = tested on: ischemic stroke rat models; assay: Ischemic stroke rat model (MCAO 2 h, reperfusion 24 h); format: in vivo, SD rats; conditions: telaprevir 60 mg/kg after 2 hours of ischemia and 1 hour of reperfusion
Experimental: Experimental animals: Healthy male SD rats weighing 250-300 g. The experimental animals were raised for one week in an environment with a temperature of 25° C., a relative humidity of 60%, free drinking water, and timed and quantified feeding, and then administered according to the requirements of each experimental group.
Method for building an ischemic stroke rat model: A cerebral ischemia/reperfusion rat model was prepared by a middle cerebral artery occlusion (MCAO) method. […]
Rat brain TTC staining and infarct volume measurement: After the rat was anesthetized, the brain was quickly taken out, the olfactory bulb and posterior brain were removed, and five coronal brain slices having a thickness of about 2.0 mm were cut from the antiunion, immediately placed in a 1% TTC solution, incubated at 37° C. in dark for 30 minutes, and then soaked and immobilized in a 10% paraformaldehyde solution. […] The infarct area of each brain slice was measured by ImageJ, and an infarct volume of the whole brain was calculated according to a formula: infarct volume=[(sum of front infarct areas of all slices+sum of back infarct areas of all slices)/2]×the thickness of each slice, that is, a sum of infarct volumes of all brain slices. […]
Neurological function scores of rats were detected and cerebral infarct volumes were measured.

[2] = tested on: H9c2 myocardial cells; assay: Hypoxia/reoxygenation injury of H9c2 myocardial cells, LDH release; format: cell-based; conditions: H9c2, hypoxia 8 h / reoxygenation 12 h; telaprevir 10 μM; vs Hypoxia, FIG. 4
Experimental: H9c2 myocardial cells were purchased from the Xiangya Cell Bank of Central South University.
Cell culture method: Following a conventional cell culture method, the above cells were cultured in a DMEM medium (containing 10% of fetal bovine serum). When the cells fused and grew to 80-90%, the cells were digested with a trypsin. After the cells shrank and became round and the intercellular space was obvious, the digestion was immediately terminated with a medium, the cells were dispersed and blown evenly into a single suspension state, passaged in bottles, and cultured in a 37° C. cell incubator containing 5% of CO2. […]
Cell injury was detected by an LDH release rate.
The measurement followed the operating instructions of a commercially available lactate dehydrogenase kit (Shanghai Beyotime Biotechnology Co., Ltd., China). […] The absorbance of the sample was measured at 490 nm. Calculation: LDH release rate of cells (%)=(absorbance of the drug treatment group-absorbance of the control group)/(absorbance of the maximum enzyme release group-absorbance of the control group)×100%. When the absorbance value of each group was calculated, the absorbance value of the background blank control group was first subtracted.

## CCC[C@H](NC(=O)[C@@H]1[C@H]2CCC[C@H]2CN1C(=O)[C@@H](NC(=O)[C@@H](NC(=O)c1cnccn1)C1CCCCC1)C(C)(C)C)C(=O)C(=O)NC1CC1 [telaprevir]
[1]; ##P<0.01 vs I/R, FIG. 2B
  neurological impairment symptoms (Longa neurological function score) of rats: significantly improve
[1]; vs I/R, FIG. 2A
  cerebral infarct volume of rats (TTC staining): significantly decreased
[2]
  release of LDH in the myocardial cell medium (LDH release rate): significantly reduce
